Assay results: PubChem BioAssay AID330 (DTP/NCI, 2004)
Several values for one entry are separate records, joined by “and”; a condition that tells them apart may be missing. Equal values may be shown once. Inconclusive results and toxic doses are left out. Rule for the calls: active = survival T/C of 150% or more; inactive = T/C below 125% in these data.

System: P388 leukemia ip, CD2F1 mice, survival T/C
Assay: NCI In Vivo Anticancer Drug Screen. Data for tumor model P388 Leukemia (intraperitoneal) in CD2F1 (CDF1) mice
Details: endpoint: median survival time, higher = longer survival
Outline: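 Mice carrying the transplanted tumor received test compound or vehicle. Survival was recorded in each group, and the value is the treated-group measurement divided by that of the vehicle-treated control group.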

[1] = dose: 6.25 mg/kg/injection, schedule: Q01DX009 (ip), vehicle: Klucel (hydroxypropylcellulose) (HPC)
[2] = dose: 6.25 mg/kg/injection, schedule: Q01DX009 (ip), vehicle: saline with Tween-80
[3] = dose: 12.5 mg/kg/injection, schedule: Q01DX009 (ip), vehicle: Klucel (hydroxypropylcellulose) (HPC)
[4] = dose: 50.0 mg/kg/injection, schedule: Q01DX009 (ip), vehicle: saline with Tween-80
[5] = dose: 100.0 mg/kg/injection, schedule: Q01DX009 (ip), vehicle: saline with Tween-80
[6] = dose: 200.0 mg/kg/injection, schedule: Q01DX009 (ip), vehicle: saline with Tween-80
[7] = dose: 100.0 mg/kg/injection, schedule: Q01DX001 (ip), vehicle: Klucel (hydroxypropylcellulose) (HPC)
[8] = dose: 200.0 mg/kg/injection, schedule: Q01DX001 (ip), vehicle: Klucel (hydroxypropylcellulose) (HPC)
[9] = dose: 400.0 mg/kg/injection, schedule: Q01DX001 (ip), vehicle: Klucel (hydroxypropylcellulose) (HPC)
[10] = dose: 50.0 mg/kg/injection, schedule: Q01DX005 (ip), vehicle: saline with Tween-80
[11] = dose: 100.0 mg/kg/injection, schedule: Q01DX005 (ip), vehicle: saline with Tween-80
[12] = dose: 200.0 mg/kg/injection, schedule: Q01DX005 (ip), vehicle: saline with Tween-80
[13] = dose: 25.0 mg/kg/injection, schedule: Q01DX009 (ip), vehicle: saline with Tween-80
[14] = dose: 60.0 mg/kg/injection, schedule: Q01DX005 (ip), vehicle: Klucel (hydroxypropylcellulose) (HPC)
[15] = dose: 60.0 mg/kg/injection, schedule: Q01DX005 (ip), vehicle: saline with Tween-80
[16] = dose: 120.0 mg/kg/injection, schedule: Q01DX005 (ip), vehicle: saline with Tween-80
[17] = dose: 240.0 mg/kg/injection, schedule: Q01DX005 (ip), vehicle: saline with Tween-80
[18] = dose: 50.0 mg/kg/injection, schedule: Q01DX005 (ip), vehicle: Klucel (hydroxypropylcellulose) (HPC)
[19] = dose: 100.0 mg/kg/injection, schedule: Q01DX005 (ip), vehicle: Klucel (hydroxypropylcellulose) (HPC)
[20] = dose: 200.0 mg/kg/injection, schedule: Q01DX005 (ip), vehicle: Klucel (hydroxypropylcellulose) (HPC)

Measured: T/C

Cc1ccc(C(=O)NC2C(=O)NC(C(C)C)C(=O)N3CCCC3C(=O)N(C)CC(=O)N(C)C(C(C)C)C(=O)OC2C)c2c1Oc1c(c(C(=O)NC3C(=O)NC(C(C)C)C(=O)N4CCCC4C(=O)N(C)CC(=O)N(C)C(C(C)C)C(=O)OC3C)c3nc(-c4ccccc4)c(=O)oc3c1C)N2 (configuration not stated)
active: dose: 0.13 mg/kg/injection, schedule: Q01DX005 (ip), vehicle: water 168 % of control | dose: 0.25 mg/kg/injection, schedule: Q01DX005 (ip), vehicle: water 181 % of control and 240 % of control | dose: 1.0 mg/kg/injection, schedule: Q01DX005 (ip), vehicle: water 246 % of control

Cc1nnc(NS(=O)(=O)c2ccc(N=Nc3cc(N=Nc4ccc(S(=O)(=O)Nc5nnc(C)s5)cc4)c4c(NC(=O)C(Cl)Cl)cccc4c3OC(=O)C(Cl)Cl)cc2)s1 (tested in a mixture with another compound)
inactive: dose: 3.12 mg/kg/injection, schedule: Q01DX009 (ip), vehicle: Klucel (hydroxypropylcellulose) (HPC) 111 % of control | [1] 116 % of control | [2] 109 % of control | [3] 120 % of control | [4] 99 % of control and 97 % of control | [5] 100 % of control | [6] 98 % of control

CCC[n+]1ccc(/C=N\NC(N)=S)c2ccccc21
inactive: [4] 110 % of control | [5] 121 % of control | [6] 112 % of control

COc1cc(NN=C(C#N)C#N)c(OC)cc1Cl
inactive: dose: 6.25 mg/kg/injection, schedule: Q01DX005 (ip), vehicle: Klucel (hydroxypropylcellulose) (HPC) 102 % of control | dose: 12.5 mg/kg/injection, schedule: Q01DX005 (ip), vehicle: Klucel (hydroxypropylcellulose) (HPC) 107 % of control | dose: 25.0 mg/kg/injection, schedule: Q01DX005 (ip), vehicle: Klucel (hydroxypropylcellulose) (HPC) 107 % of control

O=C(O)c1c(Cl)n(-c2ccccc2)c2c(C(=O)O)cccc12
inactive: [7] 97 % of control | [8] 97 % of control | [9] 97 % of control

O=C(N/N=C\c1cccc2ccccc12)C(=O)N/N=C/c1cccc2ccccc12
inactive: dose: 12.5 mg/kg/injection, schedule: Q01DX005 (ip), vehicle: saline with Tween-80 93 % of control | dose: 25.0 mg/kg/injection, schedule: Q01DX005 (ip), vehicle: saline with Tween-80 91 % of control | [10] 94 % of control | [11] 87 % of control | [12] 91 % of control

CN1CC2(C)OC3(CC2(C)N1C)N(C)N(C)CC3(C)O (configuration not stated)
inactive: dose: 50.0 mg/kg/injection, schedule: Q01DX005 (ip), vehicle: saline 101 % of control | dose: 100.0 mg/kg/injection, schedule: Q01DX005 (ip), vehicle: saline 101 % of control | dose: 200.0 mg/kg/injection, schedule: Q01DX005 (ip), vehicle: saline 101 % of control

NC(=S)N/N=C/c1ccc(OC(=O)COc2ccc(Cl)cc2)cn1
active: [2] 159 % of control | dose: 12.5 mg/kg/injection, schedule: Q01DX009 (ip), vehicle: saline with Tween-80 156 % of control and 157 % of control | [13] 184 % of control | [4] 188 % of control and 189 % of control
inactive: dose: 3.12 mg/kg/injection, schedule: Q01DX009 (ip), vehicle: saline with Tween-80 118 % of control | [6] 86 % of control
225 % of control and 88 % of control: [5]

O=C(Nc1ccc(C(=O)c2ccccc2)cc1)Nc1ccc(Cl)c(Cl)c1
inactive: dose: 15.0 mg/kg/injection, schedule: Q01DX005 (ip), vehicle: Klucel (hydroxypropylcellulose) (HPC) 93 % of control | dose: 30.0 mg/kg/injection, schedule: Q01DX005 (ip), vehicle: Klucel (hydroxypropylcellulose) (HPC) 96 % of control | [14] 89 % of control | dose: 240.0 mg/kg/injection, schedule: Q01DX005 (ip), vehicle: Klucel (hydroxypropylcellulose) (HPC) 86 % of control

FC(F)(F)c1ssc1C(F)(F)F
inactive: dose: 100.0 mg/kg/injection, schedule: Q01DX001 (ip), vehicle: other 99 % of control | dose: 200.0 mg/kg/injection, schedule: Q01DX001 (ip), vehicle: other 104 % of control

CC1(C)CC(=O)C=C(n2ccccc2=O)C1
inactive: [15] 97 % of control | [16] 102 % of control | [17] 97 % of control

COc1ccc2c(c1)CN(CCc1ccc([N+](=O)[O-])cc1)CO2
inactive: [10] 96 % of control | [11] 94 % of control | [12] 96 % of control

O=C1C2=C(Nc3cc([N+](=O)[O-])ccc3N2)OC1c1c2ccccc2cc2ccccc12 (configuration not stated)
inactive: [14] 94 % of control | dose: 120.0 mg/kg/injection, schedule: Q01DX005 (ip), vehicle: Klucel (hydroxypropylcellulose) (HPC) 88 % of control

CSC(=Nc1nc2ccc([N+](=O)[O-])cc2s1)SC
inactive: [1] 101 % of control | [3] 103 % of control | dose: 25.0 mg/kg/injection, schedule: Q01DX009 (ip), vehicle: Klucel (hydroxypropylcellulose) (HPC) 103 % of control

CCOC(=O)c1c[nH][nH]c1=O
inactive: [13] 95 % of control | [4] 93 % of control | dose: 100.0 mg/kg/injection, schedule: Q01DX001 (ip), vehicle: saline with Tween-80 98 % of control | [5] 101 % of control | dose: 200.0 mg/kg/injection, schedule: Q01DX001 (ip), vehicle: saline with Tween-80 106 % of control | [6] 100 % of control | dose: 400.0 mg/kg/injection, schedule: Q01DX001 (ip), vehicle: saline with Tween-80 94 % of control

CCOC(=O)c1c(Cl)c(CC)c(N=[N+]=[N-])n2c1nc1ccccc12
inactive: [15] 101 % of control | [16] 101 % of control

NCCCCC(C(=O)NC(Cc1ccc(O)cc1)C(=O)NC(CO)C(=O)OCc1ccc([N+](=O)[O-])cc1)N(C(=O)OCc1ccccc1)C(=O)OCc1ccccc1 (configuration not stated)
inactive: [10] 101 % of control | [11] 100 % of control | [12] 97 % of control

CC(C)(OC(C)(C)C(=O)O)C(=O)O
inactive: dose: 50.0 mg/kg/injection, schedule: Q01DX009 (ip), vehicle: saline 99 % of control | dose: 100.0 mg/kg/injection, schedule: Q01DX009 (ip), vehicle: saline 94 % of control | dose: 200.0 mg/kg/injection, schedule: Q01DX009 (ip), vehicle: saline 92 % of control

CC1=C(/C=C/C(C)=C/C=C/C(C)=C/C=C/C=C(C)/C=C/C=C(C)/C=C/C2=C(C)C(=O)CCC2(C)C)C(C)(C)CCC1=O
inactive: [15] 98 % of control | [16] 88 % of control | [17] 91 % of control

COc1cc2c3c(c1O)-c1c(cccc1OC)CC3N(C)CC2 (configuration not stated)
inactive: dose: 12.5 mg/kg/injection, schedule: Q04DX003 (ip), vehicle: saline with Tween-80 90 % of control | dose: 25.0 mg/kg/injection, schedule: Q04DX003 (ip), vehicle: saline with Tween-80 100 % of control and 88 % of control

O=c1ccncn1C1OC(CO)C(O)C1O (configuration not stated)
inactive: dose: 60.0 mg/kg/injection, schedule: Q01DX005 (ip), vehicle: saline 103 % of control | dose: 120.0 mg/kg/injection, schedule: Q01DX005 (ip), vehicle: saline 102 % of control | dose: 240.0 mg/kg/injection, schedule: Q01DX005 (ip), vehicle: saline 110 % of control

Cc1ccc2occ3c(=O)n(C)nc-3c2c1
inactive: [15] 95 % of control | [16] 91 % of control | [17] 94 % of control

Cc1ccc(N=C(c2ccccc2)C2C(=O)c3ccccc3C2=O)cc1
inactive: [18] 97 % of control | [19] 97 % of control | [20] 94 % of control

Cc1nc(N)c2c3c(sc2n1)CCCC3
inactive: [10] 95 % of control | [11] 97 % of control | [12] 100 % of control

NC(=O)Nc1nc(C(F)(F)F)cc(=O)[nH]1
inactive: [4] 103 % of control | [5] 106 % of control | [6] 99 % of control

CCCC(Nc1ncccn1)Nc1ncccn1
inactive: [18] 100 % of control | [19] 100 % of control | [20] 99 % of control

CC(=O)N1C(=O)CC23c4ccccc4C(=O)N2CCCN13 (configuration not stated)
inactive: [10] 99 % of control | [11] 106 % of control | [12] 99 % of control

COc1cc2c(cc1OC)C1Cc3cc(OC)c(OC)cc3[N+]1(C)CC2 (configuration not stated)
inactive: [10] 103 % of control | [11] 103 % of control

Cc1cc(=O)n2c(c1)[nH]c1ccccc12
inactive: [7] 89 % of control | [8] 90 % of control | [9] 88 % of control
